# Results reported in patent publication US8642837B2, “Method to increase pathogen resistance in plants” (Expressive Research B.V., priority 2004, dated 2014).
# Tested on: callose deposition
# Assay: Callose deposition in plants tested with Peronospora parasitica
# Type: in vivo, Arabidopsis
# Settings: treatment with BABA, positive control
smiles,measurement,value
"CC(N)CC(=O)O (stereo not drawn) [BABA, β-aminobutyric acid]",callose deposition,increased
